Measurements from the NIST ThermoML archive (doi:10.1016/j.fluid.2014.04.018).
“And” between values parts separate entries of the source, which are not always exact repeats. Identical values can stand only once.

Settings: Liquid, Vibrating tube method

CCCOC(=O)CCCCC(=O)OCCC [dipropyl hexanedioate]
Settings | mass density
293.15 K, 100 kPa | 979.3 kg/m3
293.15 K, 520 kPa | 979.7 kg/m3
293.15 K, 1040 kPa | 980 kg/m3
293.15 K, 2530 kPa | 981 kg/m3
293.15 K, 5020 kPa | 982.5 kg/m3
293.15 K, 7510 kPa | 984.1 kg/m3
293.15 K, 7530 kPa | 984.2 kg/m3
293.15 K, 10010 kPa | 985.7 kg/m3
293.15 K, 15050 kPa | 988.9 kg/m3
293.15 K, 20010 kPa | 991.8 kg/m3
293.15 K, 30030 kPa | 997.7 kg/m3
293.15 K, 39800 kPa | 1003.1 kg/m3
293.15 K, 50070 kPa | 1008.4 kg/m3
293.15 K, 65000 kPa | 1015.7 kg/m3
303.15 K, 100 kPa | 970.4 kg/m3 and 970.3 kg/m3
303.15 K, 500 kPa | 970.7 kg/m3
303.15 K, 510 kPa | 970.7 kg/m3
303.15 K, 1010 kPa | 971.1 kg/m3
303.15 K, 2510 kPa | 972.1 kg/m3
303.15 K, 5000 kPa | 973.8 kg/m3
303.15 K, 5030 kPa | 973.8 kg/m3
303.15 K, 7510 kPa | 975.5 kg/m3
303.15 K, 10010 kPa | 977.1 kg/m3
303.15 K, 10020 kPa | 977.1 kg/m3
303.15 K, 15010 kPa | 980.4 kg/m3
303.15 K, 20000 kPa | 983.5 kg/m3
303.15 K, 30000 kPa | 989.6 kg/m3
303.15 K, 30010 kPa | 989.6 kg/m3
303.15 K, 39800 kPa | 995.2 kg/m3
303.15 K, 50010 kPa | 1000.7 kg/m3
303.15 K, 64990 kPa | 1008.3 kg/m3
303.15 K, 65010 kPa | 1008.3 kg/m3
313.15 K, 100 kPa | 961.5 kg/m3
313.15 K, 500 kPa | 961.8 kg/m3
313.15 K, 1010 kPa | 962.2 kg/m3
313.15 K, 2510 kPa | 963.3 kg/m3
313.15 K, 5040 kPa | 965.1 kg/m3
313.15 K, 7510 kPa | 966.8 kg/m3
313.15 K, 10010 kPa | 968.5 kg/m3
313.15 K, 15000 kPa | 971.9 kg/m3
313.15 K, 19980 kPa | 975.2 kg/m3
313.15 K, 30000 kPa | 981.6 kg/m3
313.15 K, 39800 kPa | 987.4 kg/m3
313.15 K, 39810 kPa | 987.4 kg/m3
313.15 K, 50060 kPa | 993.2 kg/m3
313.15 K, 65000 kPa | 1001 kg/m3
323.15 K, 100 kPa | 952.4 kg/m3
323.15 K, 500 kPa | 952.8 kg/m3
323.15 K, 1010 kPa | 953.2 kg/m3
323.15 K, 2530 kPa | 954.3 kg/m3
323.15 K, 5020 kPa | 956.2 kg/m3
323.15 K, 7510 kPa | 958 kg/m3
323.15 K, 7550 kPa | 958.1 kg/m3
323.15 K, 10000 kPa | 959.9 kg/m3
323.15 K, 15030 kPa | 963.4 kg/m3
323.15 K, 20010 kPa | 966.9 kg/m3
323.15 K, 30010 kPa | 973.5 kg/m3
323.15 K, 39820 kPa | 979.5 kg/m3
323.15 K, 50020 kPa | 985.5 kg/m3
323.15 K, 64990 kPa | 993.7 kg/m3
333.15 K, 100 kPa | 943.5 kg/m3
333.15 K, 500 kPa | 943.9 kg/m3
333.15 K, 1020 kPa | 944.3 kg/m3
333.15 K, 2520 kPa | 945.5 kg/m3
333.15 K, 5010 kPa | 947.5 kg/m3
333.15 K, 7510 kPa | 949.4 kg/m3
333.15 K, 10000 kPa | 951.3 kg/m3
333.15 K, 15000 kPa | 955.1 kg/m3
333.15 K, 20000 kPa | 958.7 kg/m3
333.15 K, 30020 kPa | 965.6 kg/m3
333.15 K, 39790 kPa | 971.9 kg/m3
333.15 K, 50050 kPa | 978.1 kg/m3
333.15 K, 65000 kPa | 986.5 kg/m3
343.15 K, 100 kPa | 934.6 kg/m3
343.15 K, 520 kPa | 935 kg/m3
343.15 K, 1040 kPa | 935.5 kg/m3
343.15 K, 2540 kPa | 936.7 kg/m3
343.15 K, 5020 kPa | 938.8 kg/m3
343.15 K, 7510 kPa | 940.8 kg/m3
343.15 K, 7520 kPa | 940.8 kg/m3
343.15 K, 10020 kPa | 942.8 kg/m3
343.15 K, 15000 kPa | 946.7 kg/m3
343.15 K, 20030 kPa | 950.6 kg/m3
343.15 K, 29580 kPa | 957.4 kg/m3
343.15 K, 39860 kPa | 964.3 kg/m3
343.15 K, 50020 kPa | 970.7 kg/m3
343.15 K, 65000 kPa | 979.4 kg/m3
353.15 K, 100 kPa | 925.7 kg/m3
353.15 K, 510 kPa | 926.1 kg/m3
353.15 K, 1020 kPa | 926.5 kg/m3
353.15 K, 2530 kPa | 927.9 kg/m3
353.15 K, 5020 kPa | 930.1 kg/m3
353.15 K, 7510 kPa | 932.2 kg/m3
353.15 K, 7530 kPa | 932.2 kg/m3
353.15 K, 10000 kPa | 934.3 kg/m3
353.15 K, 14550 kPa | 938 kg/m3
353.15 K, 20020 kPa | 942.3 kg/m3
353.15 K, 30010 kPa | 949.8 kg/m3
353.15 K, 39800 kPa | 956.7 kg/m3
353.15 K, 49990 kPa | 963.4 kg/m3
353.15 K, 64990 kPa | 972.4 kg/m3
363.15 K, 100 kPa | 916.7 kg/m3
363.15 K, 500 kPa | 917.2 kg/m3
363.15 K, 980 kPa | 917.6 kg/m3
363.15 K, 2520 kPa | 919.1 kg/m3
363.15 K, 5000 kPa | 921.3 kg/m3
363.15 K, 7480 kPa | 923.6 kg/m3
363.15 K, 10020 kPa | 925.8 kg/m3
363.15 K, 15020 kPa | 930.1 kg/m3
363.15 K, 20020 kPa | 934.2 kg/m3
363.15 K, 30020 kPa | 942 kg/m3
363.15 K, 39810 kPa | 949.1 kg/m3
363.15 K, 50050 kPa | 956.1 kg/m3
363.15 K, 64970 kPa | 965.4 kg/m3
